Data from ChEMBL document CHEMBL3507680, “University of Dundee, Gates Library screen for HepG2 cell viability”.

test: Human HepG2 cell viability assay in 384 well format; format: toxicity, cell-based; design: dose 125 nL, time 70.5 hour; cytotoxicity at 70.5 h: concentration not given beside the values; settings: HepG2 cells, read-out: Inhibition

SMILES | cytotoxicity at 70.5 h
COc1ccc(N2CCN(Cc3noc(CC(C)C)n3)C(C)C2=O)cc1 (stereo not drawn) | -24.6%
NC(=O)c1cc2c(nc1Oc1ccc(CN3CCCC3)cc1F)CCC2 | -10.9%
COc1c(F)cc(-c2cn(CCn3c(C)cc(C)nc3=O)nn2)cc1Cl | -2.6%
Cc1cccnc1CN1CCN(C(=O)CCn2ccc(=O)[nH]c2=O)CC1 | -9.8%
COCCN1CCC2(CC1)CC(c1ccccc1)C(=O)N2C (stereo not drawn) | -7.45%
Cc1nccn1CC1CCCN(C(=O)Cc2ccsc2)C1 (stereo not drawn) | -17.7%
COCCN1CC2(CCCN(Cc3cc(=O)c(OC)co3)C2)CCC1=O (stereo not drawn) | -8.24%
CCc1nc(N2CCCN(c3ncccn3)CC2)c2cnn(C)c2n1 | -7.44%
Cn1cc(-c2ccnc(NCC3CC3)n2)cn1 | -10.3%
O=C(O)C1(O)CCN(c2ccc3cccc(Cl)c3n2)CC1 | -20.3%
CCCOC(C)Cn1ccc2[nH]c(=O)c(C#N)cc2c1=O (stereo not drawn) | 10.5%
CC(=O)Nc1ccc(-c2ccccc2CCN)cc1 | -4.46%
CCNC(=O)[C@@H]1C[C@@H](N)CN1C(=O)Cc1cc(C)ccc1C | -8.37%
CCc1nc(C)sc1CN1CC[C@@](O)(C2CC2)[C@H](C)C1 | -7.56%
O=C1CC[C@H]2CN(C3CCOCC3)CC[C@H]2N1CCC1=CCCCC1 | 2.84%
Cc1nc2c(c(NCc3ccccc3)n1)CCN(C(=O)C1CCC1)CC2 | -6.11%
CN(C)c1nc(NCc2ccccc2Cn2cccn2)ncc1F | 5.75%
Cc1ccc([C@H]2CN(C(=O)CC3CCC3)C[C@@H]2N)o1 | 0.0304%
CCS(=O)(=O)N1CCC(c2nnc(CN3CCCCC3)n2C)CC1 | -3.65%
NCC1Cc2cc(-c3cncc(C(=O)N4CCOCC4)n3)cc(Cl)c2O1 (stereo not drawn) | -4.26%
Cn1cccc1C(=O)N1C[C@H]2CC[C@@H]1CN(Cc1cscn1)C2 | 1.29%
CCCc1cc(CNC2CCN(c3cc(C)nc(N)n3)CC2)on1 | -5.61%
O=C(C1CCCO1)N1CCC(n2cc(-c3ccsc3)nn2)CC1 (stereo not drawn) | -13.3%

SMILES | cytotoxicity at 70.5 h
Cc1nn(C)c(C)c1CCC(=O)N1CCCOC(Cn2cccn2)C1 (stereo not drawn) | -2.69%
O=C1CCCCN1Cc1cccc(OC(F)F)c1 | 4.41%
CC(=O)NCC(=O)N1CCC(C2CCN(Cc3ccc(Cl)cc3)C2)CC1 (stereo not drawn) | -2.13%
Cc1ncsc1CCCn1ccnc1-c1cc2n(n1)CCCNC2 | -9.03%
O=C(CCc1cn[nH]c1)N1CCC(C2CCN(c3ncccn3)CC2)C1 (stereo not drawn) | 0.44%
Cc1c[nH]c(CN(C)C(=O)[C@]23CNC[C@H]2CNC3)n1 | -4.74%
C1Cc2nc(CCNc3nc(C4CC4)nc4c3CCNCC4)sc2C1 | -4.01%
Cc1cc(C)n(CCNC(=O)c2ncc[nH]2)c(=O)n1 | -3.22%
COc1cccc(Cc2nc3c([nH]2)CC(C)(C)CNC3=O)c1OC | -1.08%
CC(COc1ccccc1)NCc1cn2ccccc2n1 (stereo not drawn) | -4.87%
COc1ccnc(N2C[C@@H](NS(=O)(=O)N(C)C)[C@H](C(C)C)C2)n1 | 9.46%
COCCN(C)C[C@@H]1CN(c2nnc(C(C)C)s2)C[C@@H]1CO | -9.43%
CN(Cc1cc(C(C)(C)C)n[nH]1)C(=O)c1ccc2nccn2c1 | -2.34%
Cc1cc2nc(C(C)C)cc(NCC(c3ccccn3)N(C)C)n2n1 (stereo not drawn) | 3.67%
CCN(Cc1cc(F)ccc1Cl)C1CCS(=O)(=O)C1 (stereo not drawn) | 29.9%
COc1ccc(CC2(CO)CCN(c3cc(N)ncn3)CC2)cc1 | -6.39%
Nc1nc2c(c(N3CCSCC3)n1)CCN(Cc1ccccn1)CC2 | -2.53%
CNC(=O)c1[nH]nc2c1CN(c1cc(C3CCCNC3)nc(C)n1)CC2 (stereo not drawn) | -10.6%
CCc1noc(C)c1-c1nc(Cc2cccs2)nn1C1CCN(C)CC1 | -1.49%
CN(C)C(=O)N1CCN(Cc2nc3ccccc3[nH]2)[C@H]2CS(=O)(=O)C[C@H]21 | 25%
Cc1ccc(C(=O)O)cc1-c1cccc(C(C)N(C)C)c1 (stereo not drawn) | -2.39%
CC(C)COc1cccc(-c2nc3c([nH]2)CCNC3)c1 | 3.41%
O=C(O)C(c1ccc2c(c1)OCCO2)N1CCCC1 (stereo not drawn) | -3.29%

SMILES | cytotoxicity at 70.5 h
CN(CC1(CO)CCCC1)C(=O)c1cc(COc2ccccc2F)[nH]n1 | -6.26%
Cc1ncccc1OC1(C(=O)NCCC2CCCN2C)CCNCC1 (stereo not drawn) | 13.7%
CN(C)C(=O)N1C[C@@H]2CC[C@H](C1)N(C/C=C/c1ccc(F)cc1)C2 | -9.21%
O=C(O)CC[C@@H]1CN(c2ccncc2)CC[C@@H]1N1CCOCC1 | -3.32%
CCN(CC)C(=O)[C@@H]1C[C@H](n2cc(-c3ccccn3)nn2)CN1 | 12%
COc1cccc([C@@H]2CCN(Cc3c[nH]c(C)n3)C[C@H]2O)c1 | 17.7%
CC1(COc2ccccc2)NCCc2[nH]cnc21 (stereo not drawn) | -2.27%
O=C(NCc1nncn1C1CCCCC1)C1COc2ccccc2C1 (stereo not drawn) | -4%
O[C@H]1CN(c2nc(-c3ccccc3)no2)C[C@@H]1N1CCOCC1 | 6.13%
COc1cccc2c1OCC(NCCc1cnn(-c3ccccc3)c1)C2 (stereo not drawn) | -8.4%
O=S1(=O)C[C@@H]2[C@H](C1)N(S(=O)(=O)N1CCCC1)CCN2Cc1ccccc1 | -5.47%
CCCc1nnc(N2CCC3(CC2)CC(=O)NC(=O)C3)o1 | 24.4%
Cc1ccc(C)c(C(=O)N2CCC3(CCC(=O)N(CC(N)=O)C3)CC2)c1 | 29.9%
Cc1[nH]ccc1C(=O)N1CCN(C)C2(CCC(=O)N(C)CC2)C1 (stereo not drawn) | -11.2%
CN(CC(=O)N1CC(C)(C)[C@](O)(C2CC2)C1)Cc1ccncc1 | -3.61%
Cc1ccccc1SC1CCN(C(=O)C2CNC(=O)N2)CC1 (stereo not drawn) | 2.9%
O=C(NCCN1CCNC1=O)c1cnc(-c2cccnc2)nc1 | -3.28%
CNc1ncccc1C(=O)N1CCc2c(nc(N)[nH]c2=O)C1 | -3.13%
O=C(Cc1ccccc1C(F)(F)F)N1CCC2(CC1)OCCCC2O (stereo not drawn) | -16.7%
COCCCC1(CO)CCCN(Cc2nccs2)C1 (stereo not drawn) | -7.41%
CC(C)(C)CC(=O)NS(=O)(=O)c1ccc(C#N)cc1C(F)(F)F | 13.5%
COc1ccc(Cl)cc1NCC(=O)NCCNc1ncccn1 | -2.38%
Cn1ccnc1CN1CCN(CC(=O)NCc2ccccc2F)CC1 | 1.39%

SMILES | cytotoxicity at 70.5 h
Cn1ccnc1CN1CCN(CC(=O)NCc2cccs2)CC1 | 13.9%
Cc1nnc(CN(Cc2ccc3c(c2)OCO3)C2CCCCC2)o1 | -2.59%
Cc1nnc(CN(Cc2ccc3c(c2)OCO3)C2CCC(C)CC2)o1 (stereo not drawn) | -1.97%
CCOc1ccnc(N2CCN(C(=O)c3ccn(C)c(=O)c3)CC2)n1 | -1.73%
Cc1cnn(CC2CCCN2Cc2nnc(C3CC3)o2)c1 (stereo not drawn) | 13.5%
Cc1ccccc1CNC(=O)C1CCN(Cc2nccn2C)CC1 | -0.376%
COc1ccc(CNCC2CCN(c3ccccc3OC)C2)cc1O (stereo not drawn) | 5.43%
c1cc2c(cc1CN(Cc1nc(C3CC3)no1)C1CCCC1)OCO2 | 6.65%
Cc1cccc(CN2CCC(N(C)Cc3nnc(C4CC4)n3C)C2)c1 (stereo not drawn) | -1.59%
CN(Cc1nnc(C2CC2)n1C)C1CCN(Cc2ccncc2)C1 (stereo not drawn) | -2.37%
CC(C)c1noc(C(C)N2CCN(CCCN3CCCC3=O)CC2)n1 (stereo not drawn) | -0.928%
Cc1ccc(NC2CCN(C(=O)C(C(C)C)n3cncn3)CC2)nn1 (stereo not drawn) | -4.96%
COc1ccc(CN(Cc2nc(C)no2)C2CCCCC2)cc1OC | -1.31%
CC(C(=O)N1CCC(Nc2cccnn2)CC1)n1cccn1 (stereo not drawn) | 20.4%
Cc1nnc(C(C)N2CCCN(Cc3ccc(F)cc3)CC2)o1 (stereo not drawn) | -2.19%
c1ccc(Cc2nnc(CN3CCCC3Cn3cccn3)o2)cc1 (stereo not drawn) | -1.31%
Cc1nn(CC(C)C)c(N(C)C)c1CNCc1ccnn1C | 28.6%
CC(C(=O)N1CCCN(Cc2cnn(C(C)C)c2)CC1)n1ccnc1 (stereo not drawn) | 23.5%
Cc1cnn(C2CCCN(C(=O)CCCn3ccnc3C)C2)c1 (stereo not drawn) | 19.3%
CC1COCCN1Cc1nc(-c2ccc(F)cc2)no1 (stereo not drawn) | -0.197%
CC(C)n1cc(CN2CCCN(C(=O)CC3CCCCC3)CC2)cn1 | -0.435%
Cc1nc(C)n(CC2CCCN(Cc3cccc(F)c3F)C2)n1 (stereo not drawn) | 2.26%
COc1cccc(CN2CCCC(Cn3nc(C)nc3C)C2)c1 (stereo not drawn) | -1.83%

SMILES | cytotoxicity at 70.5 h
CC(C)c1cnc(CN2CCCC(c3cc(C(N)=O)[nH]n3)C2)o1 (stereo not drawn) | 2.28%
Cc1cnn(C2CCCN(C(=O)CCc3cscn3)C2)c1 (stereo not drawn) | 2.26%
COc1c(CNCc2ccccc2Cn2ccnc2)c(C)nn1C | -0.234%
COc1c(CNCc2cccc(Cn3cccn3)c2)c(C)nn1C | 3.69%
CC(C(=O)NCc1ccc(N2CCCCCC2)nc1)n1cncn1 (stereo not drawn) | 3.18%
CC(C(=O)NCc1ccc(N2CCCCC2)nc1)n1cncn1 (stereo not drawn) | -3.82%
Cc1cccc(-c2ccc(C(=O)NCC3CCCO3)c(=O)[nH]2)c1 (stereo not drawn) | -10.2%
COc1c(CNCc2ccc(Cn3ccnc3)cc2)c(C)nn1C | 0.712%
Cc1cnn(C2CCCN(C(=O)CCNS(C)(=O)=O)C2)c1 (stereo not drawn) | 24.7%
CCc1nnc(CN2CCCC(c3cc(C(N)=O)[nH]n3)C2)o1 (stereo not drawn) | -6.39%
CC(NCc1ccccc1Cl)c1ccc2[nH]c(=O)[nH]c2c1 (stereo not drawn) | 7.48%
Cc1nn(CCO)c(C)c1CNCc1cccnc1N(C)C | -4.11%
Cc1n[nH]c(C)c1C1COCCN1C(=O)c1ccc(Cl)o1 (stereo not drawn) | 18%
Cc1ncsc1C(=O)N(Cc1ccccn1)C1CC1 | 10%
Cc1cc(CNc2cc(Cl)ccc2C)no1 | -11.6%
Cc1cc(CNc2ccccc2Cl)no1 | -13.4%
CCC(N)c1ccccc1OCC(=O)N1CCCC1 (stereo not drawn) | -7.75%
Cc1ccccc1CC(=O)N1CCOCC1c1c(C)n[nH]c1C (stereo not drawn) | -6.23%
c1ccc(-n2nc(CNC3CCc4ncnn4C3)c3c2CCC3)cc1 (stereo not drawn) | 9.35%
COc1ccccc1C(=O)N1CCOCC1c1c(C)n[nH]c1C (stereo not drawn) | -15.2%
CC(C)c1nnc(CN2CCCC(Cn3cncn3)C2)o1 (stereo not drawn) | -7.64%
